Measured values taken from patent publication US4309559A, “Sulphonamides useful as pesticides” (FBC Limited, priority 1977, dated 1982).

Experiments:
Format in all cases: in vivo
Rice [1] = experiment: Surface spray (II), rice; conditions: 21 days, 0=no effect, 100=complete suppression
Excerpt: (§1) Each of the compounds listed below was formulated as: […]
(§2) (II) An aqueous suspension together with 1000 ppm of the wetting agent Lissapol NX. The surfaces of an additional set of pans with seeds already sown were then sprayed with 2.8 or 1.4 kg/ha in 450 liters/hectare, and the pans kept in the controlled environment room for 21 days.
(§3) The plants were then visually assessed for any growth regulatory or herbicidal effects. All differences from an untreated control were scored on a scale from 0-100, where 0 signifies no effect and 100 signifies complete suppression.
(§4) The results are shown in the following table where I stands for soil incorporation and II for surface spray.

Barnyard Grass [2] = experiment: Soil incorporation (I), barnyard grass; conditions: 21 days, 0=no effect, 100=complete suppression
Excerpt: as §1
(§5) (I) an attaclay/sand dust and incorporated in John Innes I potting compost at a rate equivalent to 6.5 and 3.25 parts per million weight/volume of active ingredient to soil and placed in anodised aluminium pans, 19 cm long×9.5 cm wide×5.0 cm high. This is approximately equivalent to a surface application of 2.8 and 1.4 kg active ingredient per hectare cultivated to a depth of 5 cm. Seeds of the species listed below were sown in the treated soil, one species per pan, watered and placed in a controlled environment room (22° C.; 65-85% relative humidity and 14 hours artificial illumination at 17,000 lux) for 21 days.
as §3, §4

Cotton [3] = experiment: Surface spray (II), cotton; conditions: 21 days, 0=no effect, 100=complete suppression
Excerpt: as §1, §2, §3, §4

Wheat [4] = experiment: Soil incorporation (I), wheat; conditions: 21 days, 0=no effect, 100=complete suppression
Excerpt: as §1, §5, §3, §4

[5] = tested on: Wheat (Triticum aestivum); experiment: Post-emergence foliar spray of monocotyledons, wheat; conditions: foliar spray 2.8 kg/ha, 14 days, 0=no effect, 100=complete kill
Description: (§6) Seeds of the monocotyledon species listed below were sown in anodised aluminium pans, 19 cm long×9.5 cm wide×5.0 cm deep, containing John Innes I potting compost. They were then watered and placed in a controlled environment room (22° C.; 65-85% relative humidity; 14 hours per day artificial illumination at 17,000 lux). 14 days after sowing, the seedlings were given a foliar spray of the compound of Example 44, formulated as an aqueous suspension together with 2000 ppm of the wetting agent Lissapol NX. The dosage rate was adjusted to be 2.8 kg active ingredient in 450 liters per hectare. After a further 14 days in the controlled environment room, the plants were visually assessed for any growth regulatory or herbicidal effect. All differences from an untreated control were scored on a scale from 0-100 where 0 signifies no effect and 100 signifies complete kill.
(§7) The compounds listed below were tested according to the procedure of Example 66 but including rice (Oryza sativa) as an additional test species.

Barnyard Grass [6] = experiment: Surface spray (II), barnyard grass; conditions: 21 days, 0=no effect, 100=complete suppression
Excerpt: as §1, §2, §3, §4

Wheat [7] = experiment: Surface spray (II), wheat; conditions: 21 days, 0=no effect, 100=complete suppression
Excerpt: as §1, §2, §3, §4

Tomato [8] = experiment: Surface spray (II), tomato; conditions: 21 days, 0=no effect, 100=complete suppression
Excerpt: as §1, §2, §3, §4

[9] = tested on: Barnyardgrass (Echinochloa crus-galli); experiment: Post-emergence foliar spray of monocotyledons, barnyardgrass; conditions: foliar spray 2.8 kg/ha, 14 days, 0=no effect, 100=complete kill
Description: as §6, §7

Barley [10] = experiment: Soil incorporation (I), barley; conditions: 21 days, 0=no effect, 100=complete suppression
Excerpt: as §1, §5, §3, §4

Cotton [11] = experiment: Soil incorporation (I), cotton; conditions: 21 days, 0=no effect, 100=complete suppression
Excerpt: as §1, §5, §3, §4

Rice [12] = experiment: Soil incorporation (I), rice; conditions: 21 days, 0=no effect, 100=complete suppression
Excerpt: as §1, §5, §3, §4

Barley (Hordeum vulgare) = experiment: Post-emergence foliar spray of monocotyledons, barley; conditions: foliar spray 2.8 kg/ha, 14 days, 0=no effect, 100=complete kill
Description: as §6, §7

rice (Oryza sativa) = experiment: Post-emergence foliar spray of monocotyledons, rice; conditions: foliar spray 2.8 kg/ha, 14 days, 0=no effect, 100=complete kill
Description: as §6, §7

Tomato [13] = experiment: Soil incorporation (I), tomato; conditions: 21 days, 0=no effect, 100=complete suppression
Excerpt: as §1, §5, §3, §4

Barley [14] = experiment: Surface spray (II), barley; conditions: 21 days, 0=no effect, 100=complete suppression
Excerpt: as §1, §2, §3, §4

Carrot [15] = experiment: Soil incorporation (I), carrot; conditions: 21 days, 0=no effect, 100=complete suppression
Excerpt: as §1, §5, §3, §4

Carrot [16] = experiment: Surface spray (II), carrot; conditions: 21 days, 0=no effect, 100=complete suppression
Excerpt: as §1, §2, §3, §4

Row | Compound | growth regulatory or herbicidal effect score (Rice [1]; row 3.25 ppm (1.4 kg/ha)) | growth regulatory or herbicidal effect score (Rice [1]; row 6.5 ppm (2.8 kg/ha)) | growth regulatory or herbicidal effect score (Barnyard Grass [2]; I soil incorporation 3.25 ppm) | growth regulatory or herbicidal effect score (Barnyard Grass [2]; I soil incorporation 6.5 ppm) | growth regulatory or herbicidal effect score (Cotton [3]; row 3.25 ppm (1.4 kg/ha)) | growth regulatory or herbicidal effect score (Cotton [3]; row 6.5 ppm (2.8 kg/ha)) | growth regulatory or herbicidal effect score (Wheat [4]; I soil incorporation 3.25 ppm) | growth regulatory or herbicidal effect score (Wheat [4]; I soil incorporation 6.5 ppm) | growth regulatory or herbicidal effect score [5] | growth regulatory or herbicidal effect score (Barnyard Grass [6]; row 3.25 ppm (1.4 kg/ha)) | growth regulatory or herbicidal effect score (Barnyard Grass [6]; row 6.5 ppm (2.8 kg/ha)) | growth regulatory or herbicidal effect score (Wheat [7]; row 3.25 ppm (1.4 kg/ha)) | growth regulatory or herbicidal effect score (Wheat [7]; row 6.5 ppm (2.8 kg/ha)) | growth regulatory or herbicidal effect score (Tomato [8]; row 3.25 ppm (1.4 kg/ha)) | growth regulatory or herbicidal effect score (Tomato [8]; row 6.5 ppm (2.8 kg/ha)) | growth regulatory or herbicidal effect score [9] | growth regulatory or herbicidal effect score (Barley [10]; I soil incorporation 3.25 ppm) | growth regulatory or herbicidal effect score (Barley [10]; I soil incorporation 6.5 ppm) | growth regulatory or herbicidal effect score (Cotton [11]; I soil incorporation 3.25 ppm) | growth regulatory or herbicidal effect score (Cotton [11]; I soil incorporation 6.5 ppm) | other results
1 | CCS(=O)(=O)N(CC(N)=S)c1ccc(Cl)c(Cl)c1 [Example 156] | 0 | 0 | 70 | 90 | 0 | 0 | 0 | 0 | 0 | 80 | 100 | 0 | 0 | 0 | 0 | 90 | 0 | 0 | 0 | 0 | growth regulatory or herbicidal effect score (Rice [12]; I soil incorporation 3.25 ppm): 0; growth regulatory or herbicidal effect score (Rice [12]; I soil incorporation 6.5 ppm): 0; growth regulatory or herbicidal effect score (Barley (Hordeum vulgare)): 0; growth regulatory or herbicidal effect score (rice (Oryza sativa)): 0; growth regulatory or herbicidal effect score (Tomato [13]; I soil incorporation 3.25 ppm): 0; growth regulatory or herbicidal effect score (Tomato [13]; I soil incorporation 6.5 ppm): 0; growth regulatory or herbicidal effect score (Barley [14]; row 3.25 ppm (1.4 kg/ha)): 0; growth regulatory or herbicidal effect score (Barley [14]; row 6.5 ppm (2.8 kg/ha)): 0
2 | Cc1ccc(N(CC#N)S(C)(=O)=O)cc1Cl [Example 131] | 0 | 0 | 50 | 70 | 0 | 0 | 0 | 0 | 5 | 60 | 80 | 0 | 0 | 0 | 0 | 90 | 0 | 0 | 0 | 0 | growth regulatory or herbicidal effect score (Carrot [15]; I soil incorporation 3.25 ppm): 0; growth regulatory or herbicidal effect score (Carrot [15]; I soil incorporation 6.5 ppm): 0; growth regulatory or herbicidal effect score (Carrot [16]; row 3.25 ppm (1.4 kg/ha)): 0; growth regulatory or herbicidal effect score (Carrot [16]; row 6.5 ppm (2.8 kg/ha)): 0; growth regulatory or herbicidal effect score (Rice [12]; I soil incorporation 3.25 ppm): 0; growth regulatory or herbicidal effect score (Rice [12]; I soil incorporation 6.5 ppm): 0; growth regulatory or herbicidal effect score (Barley (Hordeum vulgare)): 10; growth regulatory or herbicidal effect score (rice (Oryza sativa)): 0; growth regulatory or herbicidal effect score (Tomato [13]; I soil incorporation 3.25 ppm): 0; growth regulatory or herbicidal effect score (Tomato [13]; I soil incorporation 6.5 ppm): 0; growth regulatory or herbicidal effect score (Barley [14]; row 3.25 ppm (1.4 kg/ha)): 0; growth regulatory or herbicidal effect score (Barley [14]; row 6.5 ppm (2.8 kg/ha)): 0
3 | CS(=O)(=O)N(CC(N)=S)c1ccc(Cl)c(Cl)c1 [Example 85, N-(thiocarbamoylmethyl)-3,4-dichloromethanesulphonanilide] | 0 | 0 | 90 | 90 | 0 | 0 | 0 | 0 | 0 | 90 | 100 | 0 | 0 | 0 | 0 | 90 | 0 | 0 | 0 | 0 | growth regulatory or herbicidal effect score (Carrot [15]; I soil incorporation 3.25 ppm): 0; growth regulatory or herbicidal effect score (Carrot [15]; I soil incorporation 6.5 ppm): 0; growth regulatory or herbicidal effect score (Carrot [16]; row 3.25 ppm (1.4 kg/ha)): 0; growth regulatory or herbicidal effect score (Carrot [16]; row 6.5 ppm (2.8 kg/ha)): 0; growth regulatory or herbicidal effect score (Rice [12]; I soil incorporation 3.25 ppm): 0; growth regulatory or herbicidal effect score (Rice [12]; I soil incorporation 6.5 ppm): 0; growth regulatory or herbicidal effect score (Barley (Hordeum vulgare)): 0; growth regulatory or herbicidal effect score (rice (Oryza sativa)): 0; growth regulatory or herbicidal effect score (Tomato [13]; I soil incorporation 3.25 ppm): 0; growth regulatory or herbicidal effect score (Tomato [13]; I soil incorporation 6.5 ppm): 0; growth regulatory or herbicidal effect score (Barley [14]; row 3.25 ppm (1.4 kg/ha)): 0; growth regulatory or herbicidal effect score (Barley [14]; row 6.5 ppm (2.8 kg/ha)): 0
4 | Cc1ccc(N(CC(N)=S)S(C)(=O)=O)cc1Cl [Example 150] | 0 | 0 | 60 | 60 | 0 | 0 | 0 | 0 | 0 | 50 | 70 | 0 | 0 | 0 | 0 | 80 | 0 | 0 | 0 | 0 | growth regulatory or herbicidal effect score (Rice [12]; I soil incorporation 3.25 ppm): 0; growth regulatory or herbicidal effect score (Rice [12]; I soil incorporation 6.5 ppm): 0; growth regulatory or herbicidal effect score (Barley (Hordeum vulgare)): 0; growth regulatory or herbicidal effect score (rice (Oryza sativa)): 0; growth regulatory or herbicidal effect score (Tomato [13]; I soil incorporation 3.25 ppm): 0; growth regulatory or herbicidal effect score (Tomato [13]; I soil incorporation 6.5 ppm): 0; growth regulatory or herbicidal effect score (Barley [14]; row 3.25 ppm (1.4 kg/ha)): 0; growth regulatory or herbicidal effect score (Barley [14]; row 6.5 ppm (2.8 kg/ha)): 0
5 | CCS(=O)(=O)N(CC#N)c1ccc(Cl)c(Cl)c1 [Example 137] | 0 | 0 | 90 | 90 | 0 | 0 | 0 | 0 | 0 | 90 | 100 | 0 | 0 | 0 | 0 | 80 | 0 | 0 | 0 | 0 | growth regulatory or herbicidal effect score (Carrot [15]; I soil incorporation 3.25 ppm): 0; growth regulatory or herbicidal effect score (Carrot [15]; I soil incorporation 6.5 ppm): 0; growth regulatory or herbicidal effect score (Carrot [16]; row 3.25 ppm (1.4 kg/ha)): 0; growth regulatory or herbicidal effect score (Carrot [16]; row 6.5 ppm (2.8 kg/ha)): 0; growth regulatory or herbicidal effect score (Rice [12]; I soil incorporation 3.25 ppm): 0; growth regulatory or herbicidal effect score (Rice [12]; I soil incorporation 6.5 ppm): 0; growth regulatory or herbicidal effect score (Barley (Hordeum vulgare)): 0; growth regulatory or herbicidal effect score (rice (Oryza sativa)): 0; growth regulatory or herbicidal effect score (Tomato [13]; I soil incorporation 3.25 ppm): 0; growth regulatory or herbicidal effect score (Tomato [13]; I soil incorporation 6.5 ppm): 0; growth regulatory or herbicidal effect score (Barley [14]; row 3.25 ppm (1.4 kg/ha)): 0; growth regulatory or herbicidal effect score (Barley [14]; row 6.5 ppm (2.8 kg/ha)): 0
